Experimental data from patent US9963461B2, “Phillygenin ibuprofen ester, preparation method therefor, and application thereof” (priority 2014, dated 2018).
Marks after values point to notes of the source that are not given here.

Tests used:
[1] = system: Herpes Simplex Virus type I (HSV-1); experiment: Impact of the drugs on the virus-induced cytopathy (MTT); assay type: cell-based; settings: HSV-I 100 TCID50, Vero cells, about the maximal non-cytotoxic concentration, 72 hours
influenza virus = experiment: as above; assay type: cell-based; settings: influenza virus 100 TCID50, Vero cells, about the maximal non-cytotoxic concentration, 72 hours
[2] = system: respiratory syncytial virus (RSV); experiment: as above; assay type: cell-based; settings: RSV 100 TCID50, Vero cells, about the maximal non-cytotoxic concentration, 72 hours
[3] = system: mice pain induced by acetic acid; experiment: Analgesic test, mice writhing induced by acetic acid; assay type: in vivo, Kunming mice; settings: for Writhing times: within 15 min after 0.7% acetic acid
Description: 72 Kunming mice were randomly divided into 6 groups, with 12 mice for each group. (1) the blank normal control group (i.e. saline group, […]); (2) positive drug aspirin group (200 mg/kg); (3) ibuprofen group (300 mg/kg); (4) high dose group of phillygenin ibuprofen ester (300 mg/kg); (5) medium dose group of phillygenin ibuprofen ester (150 mg/kg); (6) low dose group of phillygenin ibuprofen ester (75 mg/kg). […] The number of mice writhings within 15 min after administration was recorded. The number of writhings was taken as the evaluation index to evaluate the analgesic effect.

parainfluenza virus = experiment: Impact of the drugs on the virus-induced cytopathy (MTT); assay type: cell-based; settings: parainfluenza virus 100 TCID50, Vero cells, about the maximal non-cytotoxic concentration, 72 hours
[4] = system: sweat secretion of rat paw part; experiment: Sweat secretion of rat paw part (coloring method); assay type: in vivo, Wistar rats; settings: for Animal number of sweat points of level +: + = sweat area below about 10%; for Animal number of sweat points of level ++: ++ = sweat area about 11-40%; for Animal number of sweat points of level +++: +++ = sweat area about 41-70%; for Animal number of sweat points of level ++++: ++++ = sweat area over 71%; for Animal number of sweat points of level −: − = no sweat point
Source text: This test was designed to observe the change of sweat secretion based on the mechanism that sweat gland is distributed on the rat paw pads, and iodine and starch can have purple reaction when encountered with sweat. In the test, 350 Wistar rats were selected, with equal male and female number, weighing 120-150 g. […] The rats were placed in a self-made rat fixation bag, with the double hind limbs exposed. The dirts on the right paw was gently scrubbed clean with the cotton swab dipped with anhydrous ethanol. Besides that subcutaneous injection was used for the pilocarpine solution, intragastric administration was used for all the other groups. […] When the test was complete, statistical process was carried out according to the rank-sum test with two-sample comparison, in order to compare the difference between the groups.

[5] = system: beer yeast induced rat fever; experiment: Beer yeast induced rat fever; assay type: in vivo, Wistar rats
Description: Male Wistar rats were selected, weighing 180-200 g. Before the test, WSC-411P portable digital thermometer was used to measure the normal rectal temperature twice (with certain interval for each time), and the average value of the two measurements was taken as the normal body temperature of the rat. Then 70 rats with the body temperature between 36.5° C. and 38° C. were chosen to be randomly divided into 7 groups by weight: the model (0.5% carboxymethylcellulose) group, the 2.5, 5, and 10 mg/kg phillygenin ibuprofen ester groups, the positive drug paracetamol (100 mg/kg) group, the ibuprofen group (i.e. prodrug control group, 300 mg/kg), the phillygenin group (100 mg/kg), with 10 rats for each group. Each group of rats were subjected to back subcutaneous injection with 10% fresh beer yeast suspension of 10 ml/kg to induce heat. After administration of 10% fresh beer yeast suspension for 6.0 h, phillygenin ibuprofen ester and paracetamol were both subjected to intragastric administration, and the model group was intragastrically administrated with equal volume of 0.5% carboxymethylcellulose. Rectal temperature was measured after 1 h, 2 h, 3 h and 4 h of the administration respectively. Changes in the body temperature were observed and difference between the groups was compared by inter-group t test processing through antipyretic percentage.

Enterovirus EV71 = experiment: Impact of the drugs on the virus-induced cytopathy (MTT); assay type: cell-based; settings: EV71 100 TCID50, Vero cells, about the maximal non-cytotoxic concentration, 72 hours
[6] = after coating B liquid for 1 minute, 2.5 mg/kg intragastric
[7] = after coating B liquid for 1 minute, 5.0 mg/kg intragastric
[8] = after coating B liquid for 1 minute, 10.0 mg/kg intragastric
[9] = after coating B liquid for 5 minutes, 2.5 mg/kg intragastric
[10] = after coating B liquid for 5 minutes, 5.0 mg/kg intragastric
[11] = after coating B liquid for 5 minutes, 10.0 mg/kg intragastric
[12] = after coating B liquid for 10 minutes, 2.5 mg/kg intragastric
[13] = after coating B liquid for 10 minutes, 5.0 mg/kg intragastric
[14] = after coating B liquid for 10 minutes, 10.0 mg/kg intragastric
[15] = after coating B liquid for 15 minutes (Table 2-4), 2.5 mg/kg intragastric
[16] = after coating B liquid for 15 minutes (Table 2-4), 5.0 mg/kg intragastric
[17] = after coating B liquid for 15 minutes (Table 2-4), 10.0 mg/kg intragastric
[18] = after coating B liquid for 15 minutes (Table 2-5), 2.5 mg/kg intragastric
[19] = after coating B liquid for 15 minutes (Table 2-5), 5.0 mg/kg intragastric
[20] = after coating B liquid for 15 minutes (Table 2-5), 10.0 mg/kg intragastric
[21] = 2.5 mg/kg, 1 h after administration
[22] = 2.5 mg/kg, 2 h after administration
[23] = 2.5 mg/kg, 3 h after administration
[24] = 2.5 mg/kg, 4 h after administration
[25] = 5.0 mg/kg, 1 h after administration
[26] = 5.0 mg/kg, 2 h after administration
[27] = 5.0 mg/kg, 3 h after administration
[28] = 5.0 mg/kg, 4 h after administration
[29] = 10.0 mg/kg, 1 h after administration
[30] = 10.0 mg/kg, 3 h after administration
[31] = 10.0 mg/kg, 4 h after administration

Which results are given for COc1ccc([C@H]2OCC3C2CO[C@H]3c2ccc(OC)c(OC(=O)C(C)c3ccc(CC(C)C)cc3)c2)cc1OC (stereo partly shown) [Phillygenin ibuprofen ester, phillygenin ibuprofen ester]?
antiviral effective rate (ER %) [1]: 99.80**^# %; antiviral effective rate (ER %) (influenza virus): 99.95**^# %; antiviral effective rate (ER %) [2]: 87.74**^# %; Writhing times ([3]; 75 mg/kg intragastric): 15.8*; Writhing times ([3]; 150 mg/kg intragastric): 6.5*; Writhing times ([3]; 300 mg/kg intragastric): 3.9*^#; effect on mice pain induced by acetic acid vs blank control group ([3]; low, medium and high dose groups (75, 150, 300 mg/kg), P<0.01): had analgesic effect; antiviral effective rate (ER %) (parainfluenza virus): 100.00**^# %; effect on the sweat secretion of rat paw part vs control group ([4]; 10 mg/kg, after coating B liquid for 5, 10, 15 and 20 min, P<0.05): obvious promoting effect; Animal number of sweat points of level + [4, 6]: 2; Animal number of sweat points of level ++ [4, 6]: 3; Animal number of sweat points of level +++ [4, 6]: 3; Animal number of sweat points of level ++++ [4, 6]: 2; Animal number of sweat points of level − [4, 6]: 0; Animal number of sweat points of level + [4, 7]: 1; Animal number of sweat points of level ++ [4, 7]: 2; Animal number of sweat points of level +++ [4, 7]: 3; Animal number of sweat points of level ++++ [4, 7]: 4; Animal number of sweat points of level − [4, 7]: 0; Animal number of sweat points of level + [4, 8]: 1; Animal number of sweat points of level ++ [4, 8]: 3; Animal number of sweat points of level +++ [4, 8]: 1; Animal number of sweat points of level ++++ [4, 8]: 5; Animal number of sweat points of level − [4, 8]: 0; Animal number of sweat points of level + [4, 9]: 1; Animal number of sweat points of level ++ [4, 9]: 3; Animal number of sweat points of level +++ [4, 9]: 3; Animal number of sweat points of level ++++ [4, 9]: 3; Animal number of sweat points of level − [4, 9]: 0; Animal number of sweat points of level + [4, 10]: 1; Animal number of sweat points of level ++ [4, 10]: 4; Animal number of sweat points of level +++ [4, 10]: 1; Animal number of sweat points of level ++++ [4, 10]: 5; Animal number of sweat points of level − [4, 10]: 0; Animal number of sweat points of level + [4, 11]: 0; Animal number of sweat points of level ++ [4, 11]: 3; Animal number of sweat points of level +++ [4, 11]: 2; Animal number of sweat points of level ++++ [4, 11]: 5; Animal number of sweat points of level − [4, 11]: 0; Animal number of sweat points of level + [4, 12]: 1; Animal number of sweat points of level ++ [4, 12]: 2; Animal number of sweat points of level +++ [4, 12]: 3; Animal number of sweat points of level ++++ [4, 12]: 4; Animal number of sweat points of level − [4, 12]: 0; Animal number of sweat points of level + [4, 13]: 0; Animal number of sweat points of level ++ [4, 13]: 3; Animal number of sweat points of level +++ [4, 13]: 2; Animal number of sweat points of level ++++ [4, 13]: 5; Animal number of sweat points of level − [4, 13]: 0; Animal number of sweat points of level + [4, 14]: 0; Animal number of sweat points of level ++ [4, 14]: 2; Animal number of sweat points of level +++ [4, 14]: 3; Animal number of sweat points of level ++++ [4, 14]: 5; Animal number of sweat points of level − [4, 14]: 0; Animal number of sweat points of level + [4, 15]: 1; Animal number of sweat points of level ++ [4, 15]: 3; Animal number of sweat points of level +++ [4, 15]: 1; Animal number of sweat points of level ++++ [4, 15]: 5; Animal number of sweat points of level − [4, 15]: 0; Animal number of sweat points of level + [4, 16]: 0; Animal number of sweat points of level ++ [4, 16]: 2; Animal number of sweat points of level +++ [4, 16]: 3; Animal number of sweat points of level ++++ [4, 16]: 5; Animal number of sweat points of level − [4, 16]: 0; Animal number of sweat points of level + [4, 17]: 0; Animal number of sweat points of level ++ [4, 17]: 1; Animal number of sweat points of level +++ [4, 17]: 4; Animal number of sweat points of level ++++ [4, 17]: 5; Animal number of sweat points of level − [4, 17]: 0; Animal number of sweat points of level + [4, 18]: 0; Animal number of sweat points of level ++ [4, 18]: 2; Animal number of sweat points of level +++ [4, 18]: 3; Animal number of sweat points of level ++++ [4, 18]: 5; Animal number of sweat points of level − [4, 18]: 0; Animal number of sweat points of level + [4, 19]: 0; Animal number of sweat points of level ++ [4, 19]: 1; Animal number of sweat points of level +++ [4, 19]: 4; Animal number of sweat points of level ++++ [4, 19]: 5; Animal number of sweat points of level − [4, 19]: 0; Animal number of sweat points of level + [4, 20]: 0; Animal number of sweat points of level ++ [4, 20]: 0; Animal number of sweat points of level +++ [4, 20]: 5; Animal number of sweat points of level ++++ [4, 20]: 5; Animal number of sweat points of level − [4, 20]: 0; Body temperature (° C.) [5, 21]: 38.93 ± 0.43 °C; antipyretic percentage (%) [5, 21]: −1.01 ± 1.05 %; Body temperature (° C.) [5, 22]: 38.75 ± 0.43 °C; antipyretic percentage (%) [5, 22]: −1.48 ± 1.11 %; Body temperature (° C.) [5, 23]: 38.56 ± 0.52 °C; antipyretic percentage (%) [5, 23]: −1.97 ± 1.67 %; Body temperature (° C.) [5, 24]: 38.25 ± 0.58 °C; antipyretic percentage (%) [5, 24]: −2.47 ± 1.80 %; Body temperature (° C.) [5, 25]: 38.48 ± 0.59 °C; antipyretic percentage (%) [5, 25]: −1.91 ± 0.40 %; Body temperature (° C.) [5, 26]: 38.33 ± 0.50 °C; antipyretic percentage (%) [5, 26]: −2.29 ± 0.54**^Δ▴▴ %; Body temperature (° C.) [5, 27]: 37.85 ± 0.33 °C; antipyretic percentage (%) [5, 27]: −3.52 ± 0.38***^Δ▴ %; Body temperature (° C.) [5, 28]: 37.67 ± 0.45 °C; antipyretic percentage (%) [5, 28]: −3.98 ± 0.52***^Δ▴▴ %; Body temperature (° C.) [5, 29]: 38.61 ± 0.51 °C; antipyretic percentage (%) [5, 29]: −2.10 ± 0.53**^Δ▴▴ %; Body temperature (° C.) ([5]; 10.0 mg/kg, 2 h after administration): 39.13 ± 0.45 °C; Body temperature (° C.) [5, 30]: 37.8 ± 0.40 °C; antipyretic percentage (%) [5, 30]: −4.01 ± 1.12***^Δ▴▴ %; Body temperature (° C.) [5, 31]: 37.74 ± 0.31 °C; antipyretic percentage (%) [5, 31]: −4.30 ± 1.26***^Δ▴▴ %; effect on the rat fever induced by beer yeast suspension vs model group ([5]; medium and high dose groups (5, 10 mg/kg), 1 h, 2 h, 3 h and 4 h after administration): significant cooling effects; antiviral effective rate (ER %) (Enterovirus EV71): 99.81**^## %
